Results reported in ChEMBL document CHEMBL1201862, “PubChem BioAssay data set” (2004).
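Protocol summary: plate cells (96-well), add compound at 5 concentrations, incubate 48 h, interpolate endpoints linearly. At the GI50, growth is halved.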 The source made the active and inactive calls. Cut-off read from the data, not from the text of the source: active = GI50 up to about 1.1 µM and inactive = higher.

Legend:
Assay in all cases: growth of human tumour cells (NCI), 48 h
786-0 = tested on: 786-0
A549 = tested on: A549
CAKI-1 = tested on: CAKI-1
CCRF-CEM = tested on: CCRF-CEM
COLO 205 = tested on: COLO 205
DU-145 = tested on: DU-145
EKVX = tested on: EKVX
HCC 2998 = tested on: HCC 2998
HCT-15 = tested on: HCT-15
HL-60 = tested on: HL-60
HOP-62 = tested on: HOP-62
HT-29 = tested on: HT-29
IGROV-1 = tested on: IGROV-1
K562 = tested on: K562
KM12 = tested on: KM12
M14 = tested on: M14
MCF7 = tested on: MCF7
MDA-MB-231 = tested on: MDA-MB-231
MDA-N = tested on: MDA-N
MOLT-4 = tested on: MOLT-4
Malme-3M = tested on: Malme-3M
NCI-H23 = tested on: NCI-H23
OVCAR-8 = tested on: OVCAR-8
PC-3 = tested on: PC-3
RPMI-8226 = tested on: RPMI-8226
RXF 393 = tested on: RXF 393
SF-268 = tested on: SF-268
SF-295 = tested on: SF-295
SK-MEL-28 = tested on: SK-MEL-28
SK-MEL-5 = tested on: SK-MEL-5
SK-OV-3 = tested on: SK-OV-3
SN12C = tested on: SN12C
SNB-75 = tested on: SNB-75
SR = tested on: SR
SW-620 = tested on: SW-620
T47D = tested on: T47D
TK-10 = tested on: TK-10
UACC-257 = tested on: UACC-257
UACC-62 = tested on: UACC-62
A498 = tested on: A498
ACHN = tested on: ACHN
HCT-116 = tested on: HCT-116
HOP-92 = tested on: HOP-92
Hs-578T = tested on: Hs-578T
LOX IMVI = tested on: LOX IMVI
MDA-MB-435 = tested on: MDA-MB-435
NCI-H226 = tested on: NCI-H226
NCI-H460 = tested on: NCI-H460
NCI-H522 = tested on: NCI-H522
NCI/ADR-RES = tested on: NCI/ADR-RES
OVCAR-3 = tested on: OVCAR-3
OVCAR-4 = tested on: OVCAR-4
OVCAR-5 = tested on: OVCAR-5
SF-539 = tested on: SF-539
SNB-19 = tested on: SNB-19
U-251 = tested on: U-251
UO-31 = tested on: UO-31

N#Cc1ccc(/N=C(/NCC(=O)O)Nc2cccc3ccccc23)cc1
GI50 (786-0): > 10 µM (inactive)
GI50 (A549): > 10 µM (inactive)
GI50 (CAKI-1): > 10 µM (inactive)
GI50 (CCRF-CEM): > 10 µM (inactive)
GI50 (COLO 205): > 10 µM (inactive)
GI50 (DU-145): > 10 µM (inactive)
GI50 (EKVX): > 10 µM (inactive)
GI50 (HCC 2998): > 10 µM (inactive)
GI50 (HCT-15): > 10 µM
GI50 (HL-60): > 10 µM (inactive)
GI50 (HOP-62): > 10 µM (inactive)
GI50 (HT-29): > 10 µM (inactive)
GI50 (IGROV-1): > 10 µM (inactive)
GI50 (K562): > 10 µM (inactive)
GI50 (KM12): > 10 µM (inactive)
GI50 (M14): > 10 µM (inactive)
GI50 (MCF7): > 10 µM (inactive)
GI50 (MDA-MB-231): > 10 µM (inactive)
GI50 (MDA-N): > 10 µM (inactive)
GI50 (MOLT-4): > 10 µM (inactive)
GI50 (Malme-3M): > 10 µM (inactive)
GI50 (NCI-H23): > 10 µM (inactive)
GI50 (OVCAR-8): > 10 µM (inactive)
GI50 (PC-3): > 10 µM (inactive)
GI50 (RPMI-8226): > 10 µM (inactive)
GI50 (RXF 393): > 10 µM (inactive)
GI50 (SF-268): > 10 µM (inactive)
GI50 (SF-295): > 10 µM (inactive)
GI50 (SK-MEL-28): > 10 µM (inactive)
GI50 (SK-MEL-5): > 10 µM (inactive)
GI50 (SK-OV-3): > 10 µM (inactive)
GI50 (SN12C): > 10 µM (inactive)
GI50 (SNB-75): > 10 µM (inactive)
GI50 (SR): > 10 µM (inactive)
GI50 (SW-620): > 10 µM (inactive)
GI50 (T47D): > 10 µM (inactive)
GI50 (TK-10): > 10 µM (inactive)
GI50 (UACC-257): > 10 µM (inactive)
GI50 (UACC-62): > 10 µM (inactive)

COC(=O)[C@H](Cc1ccc(OC(C)(C)C)cc1)N[C@H](C)C(=O)N[C@@H](Cc1ccccc1)C(=O)OCc1ccccc1
GI50 (786-0): 54.3 µM (inactive)
GI50 (A498): > 100 µM (inactive)
GI50 (A549): 46.6 µM (inactive)
GI50 (ACHN): 93.1 µM (inactive)
GI50 (CAKI-1): > 100 µM (inactive)
GI50 (CCRF-CEM): 40.2 µM (inactive)
GI50 (COLO 205): 96.6 µM (inactive)
GI50 (DU-145): > 100 µM (inactive)
GI50 (EKVX): > 100 µM (inactive)
GI50 (HCC 2998): > 100 µM (inactive)
GI50 (HCT-116): 35.6 µM (inactive)
GI50 (HCT-15): > 100 µM
GI50 (HL-60): 45.5 µM (inactive)
GI50 (HOP-62): > 100 µM (inactive)
GI50 (HOP-92): > 100 µM (inactive)
GI50 (HT-29): 47.2 µM (inactive)
GI50 (Hs-578T): > 100 µM (inactive)
GI50 (IGROV-1): > 100 µM (inactive)
GI50 (K562): 25.6 µM (inactive)
GI50 (KM12): 83.9 µM (inactive)
GI50 (LOX IMVI): 34.4 µM (inactive)
GI50 (M14): 52.4 µM (inactive)
GI50 (MCF7): 34.5 µM (inactive)
GI50 (MDA-MB-231): > 100 µM (inactive)
GI50 (MDA-MB-435): 82.8 µM (inactive)
GI50 (MDA-N): > 100 µM (inactive)
GI50 (MOLT-4): 20 µM (inactive)
GI50 (Malme-3M): > 100 µM (inactive)
GI50 (NCI-H226): 25.8 µM (inactive)
GI50 (NCI-H23): > 100 µM (inactive)
GI50 (NCI-H460): > 100 µM (inactive)
GI50 (NCI-H522): > 100 µM (inactive)
GI50 (NCI/ADR-RES): > 100 µM (inactive)
GI50 (OVCAR-3): 86.3 µM (inactive)
GI50 (OVCAR-4): > 100 µM (inactive)
GI50 (OVCAR-5): > 100 µM (inactive)
GI50 (OVCAR-8): 52.2 µM (inactive)
GI50 (PC-3): 61.7 µM (inactive)
GI50 (RPMI-8226): 37.8 µM (inactive)
GI50 (RXF 393): > 100 µM (inactive)
GI50 (SF-268): > 100 µM (inactive)
GI50 (SF-295): > 100 µM (inactive)
GI50 (SF-539): > 100 µM (inactive)
GI50 (SK-MEL-28): > 100 µM (inactive)
GI50 (SK-MEL-5): > 100 µM (inactive)
GI50 (SK-OV-3): > 100 µM (inactive)
GI50 (SN12C): 26.9 µM (inactive)
GI50 (SNB-19): > 100 µM (inactive)
GI50 (SNB-75): 57.1 µM (inactive)
GI50 (SR): 26.2 µM (inactive)
GI50 (SW-620): > 100 µM (inactive)
GI50 (TK-10): > 100 µM (inactive)
GI50 (U-251): > 100 µM (inactive)
GI50 (UACC-257): > 100 µM (inactive)
GI50 (UACC-62): > 100 µM (inactive)
GI50 (UO-31): 14.8 µM (inactive)

CC(C)=CCC1=C(O)C(=O)c2ccccc2C1=O
GI50 (EKVX): > 100 µM (inactive)
GI50 (HCC 2998): > 100 µM (inactive)
GI50 (NCI-H226): > 100 µM (inactive)

CCCCCCCCCC[C@@H](OC(C)=O)[C@@H]1CC[C@@H]([C@@H]2CC[C@@H]([C@@H](O)CC#C/C=C/CCCCCCC[C@@]3(Sc4ccccc4)C[C@H](C)OC3=O)O2)O1
GI50 (786-0): > 10 µM (inactive)
GI50 (A549): > 10 µM (inactive)
GI50 (CAKI-1): > 10 µM (inactive)
GI50 (CCRF-CEM): > 10 µM (inactive)
GI50 (COLO 205): > 10 µM (inactive)
GI50 (DU-145): > 10 µM (inactive)
GI50 (EKVX): > 10 µM (inactive)
GI50 (HCC 2998): > 10 µM (inactive)
GI50 (HCT-15): > 10 µM
GI50 (HL-60): > 10 µM (inactive)
GI50 (HOP-62): > 10 µM (inactive)
GI50 (HT-29): > 10 µM (inactive)
GI50 (IGROV-1): > 10 µM (inactive)
GI50 (K562): 9.89 µM (inactive)
GI50 (KM12): > 10 µM (inactive)
GI50 (LOX IMVI): > 10 µM (inactive)
GI50 (M14): > 10 µM (inactive)
GI50 (MCF7): > 10 µM (inactive)
GI50 (MDA-MB-231): > 10 µM (inactive)
GI50 (MDA-N): > 10 µM (inactive)
GI50 (MOLT-4): > 10 µM (inactive)
GI50 (Malme-3M): > 10 µM (inactive)
GI50 (NCI-H23): 0.968 µM (active)
GI50 (OVCAR-8): > 10 µM (inactive)
GI50 (PC-3): > 10 µM (inactive)
GI50 (RPMI-8226): > 10 µM (inactive)
GI50 (RXF 393): > 10 µM (inactive)
GI50 (SF-268): > 10 µM (inactive)
GI50 (SF-295): > 10 µM (inactive)
GI50 (SK-MEL-28): > 10 µM (inactive)
GI50 (SK-MEL-5): 4.57 µM (inactive)
GI50 (SK-OV-3): > 10 µM (inactive)
GI50 (SN12C): > 10 µM (inactive)
GI50 (SNB-75): > 10 µM (inactive)
GI50 (SR): > 10 µM (inactive)
GI50 (SW-620): > 10 µM (inactive)
GI50 (T47D): 7.46 µM (inactive)
GI50 (TK-10): > 10 µM (inactive)
GI50 (UACC-257): 3.08 µM (inactive)
GI50 (UACC-62): > 10 µM (inactive)
